Laboratory results reported in ChEMBL document CHEMBL5346961, “Discovery and Evaluation of 3-Quinoxalin Urea Derivatives as Potent, Selective, and Orally Available ATM Inhibitors Combined with Chemotherapy for the Treatment of Cancer via Goal-Oriented Molecule Generation and Virtual Screening” (J Med Chem, 2023).
The source made the active and inactive calls. The calls are words filed in the database; no cut-off is given here.

How the values were obtained:
[1] = target: T1, Serine/threonine-protein kinase ATR (Homo sapiens, UniProt Q13535); assay: Inhibition of ATR (unknown origin) assessed as remaining activity at 1 uM in presence of [gamma33P-ATP] by radiometric assay
[2] = Metabolic stability in human liver microsomes assessed as M1 metabolite formation at 1 uM in presence of NADPH-regenerating system by LC-MS/MS analysis; assay type: ADME, Microsome
[3] = target: T2, Serine-protein kinase ATM (Homo sapiens, UniProt Q13315); assay: Inhibition of ATM (unknown origin) assessed as remaining activity at 1 uM preincubated with compound for 30 mins followed by substrate addition and measured after 2 hrs by HTRF method relative to control; conditions: time 2.5 hrs
[4] = Metabolic stability in human liver microsomes assessed as half life at 1 uM in presence of NADPH-regenerating system by LC-MS/MS analysis; assay type: ADME, Microsome
[5] = Metabolic stability in human liver microsomes assessed as clearance at 1 uM in presence of NADPH-regenerating system by LC-MS/MS analysis; assay type: ADME, Microsome
[6] = Inhibition of PIK3 (unknown origin); design: species or system Homo sapiens
[7] = target: T1, Serine/threonine-protein kinase ATR; assay: Inhibition of flag tagged- ATR (unknown origin) expressed in Escherichia coli BL21 incubated for 20 mins in presence of ATP
[8] = target: T2, Serine-protein kinase ATM; assay: Inhibition of flag tagged- ATM (unknown origin) expressed in Escherichia coli BL21 incubated for 20 mins in presence of ATP
[9] = target: DNA-dependent protein kinase catalytic subunit (Homo sapiens, UniProt P78527); assay: Inhibition of DNA-PK (unknown origin)
[10] = target: Phosphatidylinositol 4,5-bisphosphate 3-kinase catalytic subunit alpha isoform (Homo sapiens, UniProt P42336); assay: Inhibition of PIK3alpha (unknown origin)
[11] = Toxicity in BALB/c nude mouse assessed as reduction in body weight at 40 mg/kg, ip administered once weekly for 21 days relative to control; assay type: organism-based; design: scale not given: the % may be the effect or the level left; conditions: in vivo, 504 h, time 21 day
SW-620 [12] = assay: Inhibition of colony formation in human SW620 cells measured after 1 week by crystal violet staining based […] assay; assay type: functional, cell-based; conditions: SW-620, 168 h
SW-620 [13] = assay: Antitumor activity against human SW620 cells xenografted in BALB/c nude mouse model assessed as tumor growth inhibition at 40 mg/kg, ip administered once weekly for 21 days by caliper method relative to control; assay type: functional; conditions: SW-620, 504 h, time 21 day, read-out: TGI
MCF7 [14] = assay: cells; conditions: Homo sapiens, MCF7, 144 h
HCT-116 [15] = assay: Induction of DNA damage in human HCT-116 cells assessed as upregulation of gammaH2AX at 25 uM measured after 4 hrs by Western blot analysis; assay type: functional, cell-based
HCT-116 [16] = assay: Induction of DNA damage in human HCT-116 cells assessed as upregulation of p21 at T145 residue at 25 uM measured after 4 hrs by Western blot analysis; assay type: functional, cell-based
HCT-116 [17] = assay: Induction of apoptosis in human HCT-116 cells assessed as viable cells at 5 uM measured after 2 days by AnnexinV-FITC/PI staining based analysis (reference value: 72.8%); assay type: functional; conditions: HCT-116, 48 h, time 2 day, read-out: Activity
SW-620 [18] = assay: Antiproliferative activity against human SW620 cells assessed as reduction in cell viability measured after 6 days by MTT assay; assay type: functional, cell-based; conditions: SW-620, 144 h
HCT-116 [19] = assay: Induction of apoptosis in human HCT-116 cells assessed as late apoptotic cells at 5 uM measured after 2 days by AnnexinV-FITC/PI staining based analysis (reference value: 12.2%); assay type: functional; conditions: time 2 day
HCT-116 [20] = assay: Induction of DNA damage in human HCT-116 cells assessed as upregulation of ATM phosphorylation at S1981 residue at 25 uM measured after 4 hrs by Western blot analysis; assay type: functional, cell-based
HCT-116 [21] = assay: Induction of apoptosis in human HCT-116 cells assessed as necrotic cells at 5 uM measured after 2 days by AnnexinV-FITC/PI staining based analysis (reference value: 0.64%); assay type: functional; conditions: time 2 day
HCT-116 [22] = assay: Induction of apoptosis in human HCT-116 cells assessed as early apoptotic cells at 5 uM measured after 2 days by AnnexinV-FITC/PI staining based analysis (reference value: 14.4%); assay type: functional; conditions: time 2 day
HCT-116 [23] = assay: Inhibition of colony formation in human HCT-116 cells assessed as assessed as fold change in IC50 in presence of ionizing radiation; assay type: functional
SW-620 [24] = assay: Antitumor activity against human SW620 cells xenografted in BALB/c nude mouse model assessed as tumor growth inhibition at 40 mg/kg, po administered once daily for 3 days weekly after irinotecan post treatment for 21 days by caliper method relative to control; assay type: functional; conditions: SW-620, 504 h, time 21 day, read-out: TGI
HCT-116 [25] = assay: Antiproliferative activity against human HCT-116 cells assessed as cell survival at 1 uM incubated for 6 days by MTT assay relative to control; assay type: functional; conditions: HCT-116, 144 h, time 6 day, read-out: Survival
[26] = Half life in Balb/C mouse at 10 mg/kg,iv measured upto 48 hrs by LC-MS/MS analysis; assay type: ADME, organism-based; conditions: in vivo
[27] = AUC (0 to t) in Balb/C mouse at 10 mg/kg,po measured upto 48 hrs by LC-MS/MS analysis; assay type: ADME, organism-based; design: dose 10 mg/kg, time < 48 hrs, route po; conditions: in vivo
MCF7 [28] = assay: Antiproliferative activity against human MCF7 cells assessed as reduction in cell viability incubated for 6 days by MTT assay; assay type: functional, cell-based; conditions: MCF7, 144 h
SW-620 [29] = assay: Synergistic inhibition of colony formation in human SW620 cells assessed as fold increase in irinotecan IC50 at 200 nM preincubated for 1 hr followed by irinotecan addition and measured after 1 week by crystal violet staining based […] assay; assay type: functional; conditions: time 169 hrs
[30] = Tmax in Balb/C mouse at 10 mg/kg,po measured upto 48 hrs by LC-MS/MS analysis; assay type: ADME, organism-based; conditions: in vivo
HCT-116 [31] = assay: Induction of DNA damage in human HCT-116 cells assessed as reduction in p21 phosphorylation at T145 residue at 2 uM measured after 4 hrs by Western blot analysis; assay type: functional, cell-based
HCT-116 [32] = assay: Antiproliferative activity against human HCT-116 cells assessed as reduction in cell viability incubated for 6 days by MTT assay; assay type: functional, cell-based; conditions: HCT-116, 144 h
MCF7 [33] = assay: Synergistic antiproliferative activity against human MCF7 cells assessed as fold increase in etoposide IC50 at 200 nM measured after 6 days by MTT assay; assay type: functional; conditions: time 6 day
HCT-116 [34] = assay: Inhibition of colony formation in human HCT-116 cells preincubated for 1 hr followed by exposure to 2 Gy gamma irradiation and measured after 1 week by crystal violet staining based […] assay; assay type: functional, cell-based; conditions: HCT-116, light or radiation study
HCT-116 [35] = assay: Induction of DNA damage in human HCT-116 cells assessed as reduction in ATM phosphorylation at S1981 residue at 2 uM measured after 4 hrs by Western blot analysis; assay type: functional, cell-based
SW-620 [36] = assay: Antiproliferative activity against human SW620 cells assessed as reduction in cell viability incubated for 6 days by MTT assay; assay type: functional, cell-based; conditions: SW-620, 144 h
[37] = Tmax in Balb/C mouse at 10 mg/kg,iv measured upto 48 hrs by LC-MS/MS analysis; assay type: ADME, organism-based; conditions: in vivo
[38] = AUC (0 to t) in Balb/C mouse at 10 mg/kg,iv measured upto 48 hrs by LC-MS/MS analysis; assay type: ADME, organism-based; design: time < 48 hrs, dose 10 mg/kg, route iv; conditions: in vivo
[39] = Cmax in Balb/C mouse at 10 mg/kg,iv measured upto 48 hrs by LC-MS/MS analysis; assay type: ADME, organism-based; design: time < 48 hrs, dose 10 mg/kg, route iv; conditions: in vivo
HCT-116 [40] = assay: Inhibition of colony formation in human HCT-116 cells at 0.01 uM preincubated for 1 hr followed by exposure to 2 Gy gamma irradiation and measured after 1 week by crystal violet staining based […] assay relative to control; assay type: functional; conditions: HCT-116, light or radiation study, time 169 hrs
SW-620 [41] = assay: Synergistic antiproliferative activity against human SW620 cells assessed as fold increase in irinotecan IC50 at 200 nM measured after 6 days by MTT assay; assay type: functional; conditions: time 6 day
[42] = Volume of distribution at steady state in Balb/C mouse at 10 mg/kg,po measured upto 48 hrs by LC-MS/MS analysis; assay type: ADME, organism-based; conditions: in vivo
[43] = Half life in Balb/C mouse at 10 mg/kg,po measured upto 48 hrs by LC-MS/MS analysis; assay type: ADME, organism-based; conditions: in vivo
[44] = Oral bioavailability in Balb/C mouse at 10 mg/kg measured upto 48 hrs by LC-MS/MS analysis; assay type: ADME, organism-based; conditions: in vivo
[45] = Clearance in Balb/C mouse at 10 mg/kg,po measured upto 48 hrs by LC-MS/MS analysis; assay type: ADME, organism-based; conditions: in vivo
[46] = Cmax in Balb/C mouse at 10 mg/kg,po measured upto 48 hrs by LC-MS/MS analysis; assay type: ADME, organism-based; design: dose 10 mg/kg, time < 48 hrs, route po; conditions: in vivo
[47] = Clearance in Balb/C mouse at 10 mg/kg,iv measured upto 48 hrs by LC-MS/MS analysis; assay type: ADME, organism-based; conditions: in vivo
MCF7 [48] = assay: Synergistic antiproliferative activity against human MCF7 cells assessed as fold increase in irinotecan IC50 at 200 nM measured after 6 days by MTT assay; assay type: functional; conditions: time 6 day
[49] = Volume of distribution at steady state in Balb/C mouse at 10 mg/kg,iv measured upto 48 hrs by LC-MS/MS analysis; assay type: ADME, organism-based; conditions: in vivo, read-out: Vdss

T2 sequence (Q13315 whole entry): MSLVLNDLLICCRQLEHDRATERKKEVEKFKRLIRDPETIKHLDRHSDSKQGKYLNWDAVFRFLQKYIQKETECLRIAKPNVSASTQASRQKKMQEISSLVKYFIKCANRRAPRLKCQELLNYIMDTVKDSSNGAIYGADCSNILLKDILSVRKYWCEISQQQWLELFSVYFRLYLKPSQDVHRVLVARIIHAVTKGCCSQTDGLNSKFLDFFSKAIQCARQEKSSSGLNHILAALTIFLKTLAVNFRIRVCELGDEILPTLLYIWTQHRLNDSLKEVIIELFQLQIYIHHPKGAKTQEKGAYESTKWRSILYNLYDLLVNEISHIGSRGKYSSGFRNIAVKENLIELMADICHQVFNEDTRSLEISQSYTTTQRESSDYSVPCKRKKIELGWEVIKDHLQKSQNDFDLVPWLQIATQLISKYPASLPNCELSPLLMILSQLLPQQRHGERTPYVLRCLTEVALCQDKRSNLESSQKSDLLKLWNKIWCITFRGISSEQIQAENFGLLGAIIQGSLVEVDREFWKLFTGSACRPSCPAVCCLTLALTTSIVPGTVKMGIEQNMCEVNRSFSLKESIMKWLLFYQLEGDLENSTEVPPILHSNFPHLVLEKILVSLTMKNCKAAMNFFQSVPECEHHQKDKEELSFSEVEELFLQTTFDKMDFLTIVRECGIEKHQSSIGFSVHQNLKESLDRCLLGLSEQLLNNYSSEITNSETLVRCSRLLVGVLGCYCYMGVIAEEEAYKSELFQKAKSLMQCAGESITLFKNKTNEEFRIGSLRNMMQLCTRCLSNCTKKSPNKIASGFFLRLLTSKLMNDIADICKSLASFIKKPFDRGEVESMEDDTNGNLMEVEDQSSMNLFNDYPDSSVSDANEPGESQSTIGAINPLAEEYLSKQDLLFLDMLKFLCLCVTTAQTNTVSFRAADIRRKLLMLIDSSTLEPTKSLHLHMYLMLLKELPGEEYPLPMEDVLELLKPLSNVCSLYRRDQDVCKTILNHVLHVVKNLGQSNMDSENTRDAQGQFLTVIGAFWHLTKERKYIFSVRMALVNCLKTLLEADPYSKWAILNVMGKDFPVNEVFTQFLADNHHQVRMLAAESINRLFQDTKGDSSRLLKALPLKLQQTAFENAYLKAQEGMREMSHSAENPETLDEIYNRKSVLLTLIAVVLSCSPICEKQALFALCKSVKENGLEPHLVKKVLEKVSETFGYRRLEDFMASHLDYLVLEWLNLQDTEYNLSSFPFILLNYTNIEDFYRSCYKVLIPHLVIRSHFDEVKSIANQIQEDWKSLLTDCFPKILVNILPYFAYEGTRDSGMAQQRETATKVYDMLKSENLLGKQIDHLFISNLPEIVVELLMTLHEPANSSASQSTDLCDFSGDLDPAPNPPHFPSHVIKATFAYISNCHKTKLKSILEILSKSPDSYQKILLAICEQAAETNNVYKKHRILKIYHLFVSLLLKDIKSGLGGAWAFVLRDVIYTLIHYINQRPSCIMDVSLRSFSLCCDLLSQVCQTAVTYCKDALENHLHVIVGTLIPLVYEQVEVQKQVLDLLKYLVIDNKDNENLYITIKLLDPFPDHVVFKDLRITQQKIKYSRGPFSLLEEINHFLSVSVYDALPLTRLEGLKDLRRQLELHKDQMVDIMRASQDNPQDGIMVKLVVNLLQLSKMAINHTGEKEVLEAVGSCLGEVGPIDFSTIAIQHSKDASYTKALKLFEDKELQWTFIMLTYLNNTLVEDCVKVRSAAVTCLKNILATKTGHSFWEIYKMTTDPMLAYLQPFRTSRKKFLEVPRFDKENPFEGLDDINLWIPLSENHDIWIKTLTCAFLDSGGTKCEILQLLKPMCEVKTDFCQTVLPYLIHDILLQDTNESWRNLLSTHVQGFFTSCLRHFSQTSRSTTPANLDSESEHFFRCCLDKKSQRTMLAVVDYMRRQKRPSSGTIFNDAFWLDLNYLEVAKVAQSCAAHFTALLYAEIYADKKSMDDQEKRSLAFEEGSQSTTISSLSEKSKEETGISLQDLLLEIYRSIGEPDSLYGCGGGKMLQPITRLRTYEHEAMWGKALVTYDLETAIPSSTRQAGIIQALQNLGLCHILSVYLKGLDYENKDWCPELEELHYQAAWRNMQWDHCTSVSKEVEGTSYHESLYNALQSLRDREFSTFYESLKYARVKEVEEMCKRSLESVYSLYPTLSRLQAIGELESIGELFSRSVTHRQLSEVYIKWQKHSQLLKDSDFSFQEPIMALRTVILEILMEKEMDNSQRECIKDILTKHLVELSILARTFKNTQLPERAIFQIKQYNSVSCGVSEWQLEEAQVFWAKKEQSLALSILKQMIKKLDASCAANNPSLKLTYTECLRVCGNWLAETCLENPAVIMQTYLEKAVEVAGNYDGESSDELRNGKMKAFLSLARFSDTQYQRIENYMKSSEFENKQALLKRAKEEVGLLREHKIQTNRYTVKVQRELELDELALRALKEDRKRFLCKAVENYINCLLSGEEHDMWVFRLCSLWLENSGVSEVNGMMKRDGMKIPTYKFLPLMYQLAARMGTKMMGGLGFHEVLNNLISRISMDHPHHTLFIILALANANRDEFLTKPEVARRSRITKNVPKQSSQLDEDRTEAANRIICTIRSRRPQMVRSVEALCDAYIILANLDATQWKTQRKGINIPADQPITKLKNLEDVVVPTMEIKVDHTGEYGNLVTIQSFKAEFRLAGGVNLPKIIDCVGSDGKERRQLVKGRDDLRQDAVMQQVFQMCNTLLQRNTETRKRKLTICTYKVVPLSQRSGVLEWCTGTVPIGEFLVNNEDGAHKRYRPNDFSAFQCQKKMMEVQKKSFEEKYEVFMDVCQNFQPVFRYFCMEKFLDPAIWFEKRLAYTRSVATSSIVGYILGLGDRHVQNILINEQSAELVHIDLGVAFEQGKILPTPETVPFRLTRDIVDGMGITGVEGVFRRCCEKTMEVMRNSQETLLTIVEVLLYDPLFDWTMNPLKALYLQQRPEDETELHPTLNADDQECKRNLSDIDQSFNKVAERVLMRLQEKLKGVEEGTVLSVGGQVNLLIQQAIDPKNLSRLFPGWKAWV
Chain of Phosphatidylinositol 4,5-bisphosphate 3-kinase catalytic subunit alpha isoform (P42336 whole entry, canonical isoform): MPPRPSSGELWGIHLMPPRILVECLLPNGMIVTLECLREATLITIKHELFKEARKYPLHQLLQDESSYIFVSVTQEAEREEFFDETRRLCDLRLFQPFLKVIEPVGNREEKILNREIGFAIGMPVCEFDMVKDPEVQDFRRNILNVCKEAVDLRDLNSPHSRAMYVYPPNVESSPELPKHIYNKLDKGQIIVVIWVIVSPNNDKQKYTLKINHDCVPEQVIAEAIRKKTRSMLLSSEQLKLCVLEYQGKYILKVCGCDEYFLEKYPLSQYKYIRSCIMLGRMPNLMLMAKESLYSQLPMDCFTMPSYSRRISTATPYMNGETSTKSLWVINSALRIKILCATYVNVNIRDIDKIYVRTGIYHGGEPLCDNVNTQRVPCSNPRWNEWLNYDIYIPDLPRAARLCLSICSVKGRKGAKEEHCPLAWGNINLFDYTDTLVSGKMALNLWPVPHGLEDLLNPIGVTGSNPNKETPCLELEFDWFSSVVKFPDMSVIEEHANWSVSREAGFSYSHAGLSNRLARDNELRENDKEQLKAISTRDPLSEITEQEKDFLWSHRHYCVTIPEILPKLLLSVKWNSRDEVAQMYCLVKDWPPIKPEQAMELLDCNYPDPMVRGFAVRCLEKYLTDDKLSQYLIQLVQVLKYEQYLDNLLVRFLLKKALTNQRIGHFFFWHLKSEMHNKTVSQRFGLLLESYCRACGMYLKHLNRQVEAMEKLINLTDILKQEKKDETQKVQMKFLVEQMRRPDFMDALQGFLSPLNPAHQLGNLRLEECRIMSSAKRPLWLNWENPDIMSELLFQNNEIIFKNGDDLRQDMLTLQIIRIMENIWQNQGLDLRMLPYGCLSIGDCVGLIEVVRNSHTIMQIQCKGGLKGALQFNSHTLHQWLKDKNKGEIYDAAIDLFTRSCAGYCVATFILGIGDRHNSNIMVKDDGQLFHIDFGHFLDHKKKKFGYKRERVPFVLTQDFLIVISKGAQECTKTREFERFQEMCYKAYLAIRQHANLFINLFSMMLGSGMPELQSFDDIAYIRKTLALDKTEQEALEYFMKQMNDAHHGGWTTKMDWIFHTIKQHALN

CN(C)CCCOc1ccc(-c2ccc3ncc(NC(=O)NC4CCCCC4)nc3c2)cn1
Activity [1]: 102% | Drug metabolism [2]: Metabolite_Detected | Activity [3]: -5% | half-life at 1 µM [4]: 0.0833 h | CLH [5]: 293 mL/min/g

Cn1c(=O)n(-c2ccc(C(C)(C)C#N)cc2)c2c3cc(-c4cnc5ccccc5c4)ccc3ncc21 [DACTOLISIB]
IC50 [6]: 4 nM | IC50 [7]: 21 nM

CC(C)(C#N)c1ccc(N2C(=O)OCc3cnc4ccc(-c5cnc6ccccc6c5)cc4c32)cc1
IC50 [8]: 545 nM | IC50 [9]: 36 nM | IC50 [10]: 170 nM

CCc1c2c(nc3ccc(OC(=O)N4CCC(N5CCCCC5)CC4)cc13)-c1cc3c(c(=O)n1C2)COC(=O)[C@]3(O)CC [IRINOTECAN]
Activity [11]: < 12% | IC50 (SW-620 [12]): 230 nM | inhibition in vivo at 40 mg/kg (SW-620 [13]): 69.2% | IC50 (MCF7 [14]): 910 nM | Activity (HCT-116 [15]): inactive | Activity (HCT-116 [16]): Active | viability at 5 µM (HCT-116 [17]): 52.3% | IC50 (SW-620 [18]): 980 nM | Activity (HCT-116 [19]): 19.9% | Activity (HCT-116 [20]): Active | Activity (HCT-116 [21]): 1.7% | Activity (HCT-116 [22]): 26%

COCc1ccc(-c2ccc3ncc(C(N)=O)c(N[C@@H](C)C4CCOCC4)c3c2)cn1
fold change (FC) (HCT-116 [23]): 6520 | inhibition in vivo at 40 mg/kg (SW-620 [24]): 77.7% | viability at 1 µM (HCT-116 [25]): > 83% | t1/2 [26]: 4.28 h | AUCt [27]: 7396.76 ng·h/mL | IC50 (MCF7 [28]): > 9000 nM | fold change (FC) (SW-620 [29]): 3.3 | Tmax [30]: 1.33 h | Activity (HCT-116 [31]): Active | IC50 (HCT-116 [32]): > 9000 nM | fold change (FC) (MCF7 [33]): 1.4 | IC50 (HCT-116 [34]): 20 nM | Activity (HCT-116 [35]): Active | IC50 (SW-620 [36]): > 9000 nM | Tmax [37]: 4.8 min | AUCt [38]: 7772.02 ng·h/mL | Cmax [39]: 3010 ng/mL | inhibition at 0.01 µM (HCT-116 [40]): 13.2% | half-life at 1 µM [4]: 3.22 h | fold change (FC) (SW-620 [41]): 1.5 | Vdss [42]: 6.49 L/kg | t1/2 [43]: 3.16 h | bioavailability [44]: 95.2% | CL/F [45]: 23 mL/min/kg | CLH [5]: 7.2 mL/min/g | Cmax [46]: 1360 ng/mL | clearance [47]: 22 mL/min/kg | fold change (FC) (MCF7 [48]): 2.1 | Vd [49]: 7.68 L/kg
